Test results reported in PMC11345836 (Journal of Medicinal Chemistry, 2024).
Values after ≈ are worked out from the molar mass of the structure shown. Like-named read-outs stand apart in the source and are kept apart here.

Columns and labels:
[1] = rat, p.o. 10 mg/kg, fed
[2] = Rat liver microsome stability; conditions: for microsomal CLint: rat, microsomes; for predicted hepatic clearance, rat: scaled from rat liver microsomes
[3] = cited from earlier work
[4] = 0.3–10 μM; cited from earlier work
[5] = NMR EXSY rotamer exchange kinetics; conditions: for Rotamer exchange in EXSY: 300 ms mixing time at 298 K; for Torsion Rotation t1/2: extrapolated to 298 K
[6] = 0.3–10 μM; cited from earlier work; remark: listed apart in the source
[7] = cited from earlier work; remark: listed apart in the source
[8] = 0.3–10 μM; cited from earlier work; remark: listed apart in the source
[9] = cited from earlier work; remark: listed apart in the source
[10] = cited from earlier work; remark: listed apart in the source
[11] = Solubility of solid forms; format: physicochemical
[12] = 2–200 μM; cited from earlier work
[13] = cited from earlier work; remark: listed apart in the source
Shake-flask LogD = format: physicochemical

Structure (SMILES): CC(C)(C)[C@H](NC(=O)C(F)(F)F)C(=O)N1C[C@H](OC(F)F)C[C@H]1C(=O)N[C@H](C#N)C[C@@H]1CCNC1=O [Compound 6, (2S,4R)-N-((S)-1-Cyano-2-((S)-2-oxopyrrolidin-3-yl)ethyl)-4-(difluoromethoxy)-1-((S)-3,3-dimethyl-2-(2,2,2-trifluoroacetamido)butanoyl)pyrrolidine-2-carboxamide]
- Fa × Fg ([1]; 50% ASD): 7.2 (7.3, 6.9) %
- Oral F ([1]; 50% ASD): 4.2 (4.3, 4.1) %
- Fa × Fg ([1]; crystalline, suspension): 20.2 (20.0, 20.4) %
- microsomal CLint [2]: < 5.8 µL/min/mg
- predicted hepatic clearance, rat [2]: < 11 mL/min/kg

Structure (SMILES): CC(C)(C)[C@H](NC(=O)C(F)(F)F)C(=O)N1C[C@H]2[C@@H]([C@H]1C(=O)N[C@H](C#N)C[C@@H]1CCNC1=O)C2(C)C [Compound 1, nirmatrelvir]
- observed CLp, rats [3]: 22.7 mL/min/kg
- fu,p human plasma [4]: 0.30–0.33
- Energy of Rotation ([5]; Form: Anhydrous): 20.4 kcal/mol
- Rotamer exchange in EXSY ([5]; Form: Anhydrous): No
- Torsion Rotation t1/2 ([5]; Form: Anhydrous): 10.54 min
- Energy of Rotation ([5]; Form: MTBE): 20.2 kcal/mol
- Rotamer exchange in EXSY ([5]; Form: MTBE): No
- Torsion Rotation t1/2 ([5]; Form: MTBE): 10.99 min
- fu,p rat plasma [6]: 0.47–0.49
- predicted hepatic clearance, monkeys [7]: 25 mL/min/kg
- fu,p monkey plasma [8]: 0.39–0.50
- predicted hepatic clearance, rats [9]: 5.8 mL/min/kg
- observed CLp, monkeys [10]: 15.8 mL/min/kg
- solubility ([11]; Form: Anhydrous): 1200 µg/mL (≈ 2.4 mM)
- solubility ([11]; Form: MTBE): 7210 µg/mL (≈ 14.4 mM)
- fu,p dog plasma [12]: 0.024–0.69
- CLint,app, substrate depletion in HLM [13]: 28.8 µL/min/mg
- predicted hepatic clearance, human ([13]; from substrate depletion in HLM): 6.3 mL/min/kg

Structure (SMILES): COC(=O)N[C@H](C(=O)N1C[C@H](OC(F)(F)F)C[C@H]1C(=O)N[C@H](C#N)C[C@@H]1CCNC1=O)C(C)(C)C [Compound 5, Methyl ((S)-1-((2S,4R)-2-(((S)-1-cyano-2-((S)-2-oxopyrrolidin-3-yl)ethyl)carbamoyl)-4-(trifluoromethoxy)pyrrolidin-1-yl)-3,3-dimethyl-1-oxobutan-2-yl)carbamate]
- Fa × Fg ([1]; amorphous, solution): 12.2 (11.4, 13.2) %
- Oral F ([1]; amorphous, solution): 8.6 (8.0, 9.2) %
- microsomal CLint [2]: < 5.8 µL/min/mg
- predicted hepatic clearance, rat [2]: < 11 mL/min/kg

Structure (SMILES): COC(=O)N[C@H](C(=O)N1C[C@H](C(F)(F)F)C[C@H]1C(=O)N[C@H](C#N)C[C@@H]1CCCNC1=O)C(C)C [Compound 12, Methyl ((S)-1-((2S,4R)-2-(((S)-1-cyano-2-((S)-2-oxopiperidin-3-yl)ethyl)carbamoyl)-4-(trifluoromethyl)pyrrolidin-1-yl)-3-methyl-1-oxobutan-2-yl)carbamate]
- Fa × Fg ([1]; 50% ASD): 15.8 (17.1, 14.5) %
- Oral F ([1]; 50% ASD): 8.1 (8.8, 7.5) %
- Fa × Fg ([1]; amorphous, solution): 14.7 (12.3, 17.6) %
- Oral F ([1]; amorphous, solution): 7.7 (6.3,9.0) %
- microsomal CLint [2]: < 5.8 µL/min/mg
- predicted hepatic clearance, rat [2]: < 11 mL/min/kg

Structure (SMILES): Cc1cnc(C(=O)N[C@H]2CCCCC/C=C\[C@@H]3C[C@@]3(C(=O)NS(=O)(=O)C3CC3)NC(=O)[C@@H]3C[C@@H](Oc4nc5ccccc5c5ccccc45)CN3C2=O)cn1 [paritaprevir]
- logD (Shake-flask LogD): 3.1

Structure (SMILES): Cc1cccc(C)c1OCC(=O)N[C@@H](Cc1ccccc1)[C@@H](O)C[C@H](Cc1ccccc1)NC(=O)[C@H](C(C)C)N1CCCNC1=O [lopinavir]
- logD (Shake-flask LogD): 3.8
